“Also recorded” adds a separate entry of the source. Values belong to the compound of their own block, whether it stands above or below them.
Key:
[1] = Cytotoxicity by MTT assay; assay type: cell-based
[2] = tested on: LPS-stimulated RAW264.7 cells; test: NO release inhibition in LPS-stimulated RAW264.7 cells (Griess reagent); assay type: cell-based; conditions: for IC50: Mus musculus, LPS-stimulated RAW264.7 cells, Griess Reagent; for anti-inflammatory activity (in words): SAR summary covering NO release and NF-κB reporter inhibition
Description: After incubated for 24 hours, cells were treated with tested compounds for different
concentrations(3.125,6.25,12.5,25 and 50μM) for 1 h, and then treated with 1 μg/mL LPS
for further 24 h. The supernatants were collected and NO level was measured using
Griess reagent (Beyotime, China). […]

NF-κB = NF-κB transcriptional activity dual-luciferase reporter assay, TNF-α stimulated; assay type: cell-based; conditions: HEK293T cells transfected with NF-κB reporter plasmid, stimulated by TNF-α
Description: (§1) 4.5. NF-κB transcriptional activity assay
HEK293T cells were seeded into 96 well plate at a density of 1×10^5 cells per well. After incubated for 24 hours, cells were transfected with NF-κB reporter plasmid at 100 ng/well using lip2000.Six hours later, the medium was replaced by fresh medium containing tested compounds with different concentrations. Then incubated for another hour, TNF-α was added for a final concentration at 10 ng/mL.12 hours later, the cell lysate was collected and the RLU was measured by microplate reader. […]

[3] = tested on: RELA (p65) and NFKB1 (p50) subunits of NF-κB; test: Western blot of TNFα-induced nuclear translocation of p65 and p50 in HEK293T cells; assay type: cell-based; conditions: compound 4, 2, 1 μM 1 h, then TNF-α 12 h, nuclear protein WB
Description: HEK293T cells were seeded into 6 well plate at a density of 1.5×10^6 cells per well and incubated at 37°C in 5% CO2 about 24 h. HEK293T cells were pretreated with compound (4, 2, 1 μM) for 1 h, then treated with TNF-α (1 μg/mL) for 12 h. The nuclear protein was extracted by Nuclear protein extraction kit(Beyotime).The samples were analyzed by WB.
All antibodies were purchased from ZENBIO. […]

iNOS and COX-2 = test: Western blot of iNOS and COX-2 expression in LPS-stimulated RAW264.7 cells; assay type: cell-based; conditions: compound 1 h then LPS 24 h, WB
Description: RAW264.7 cells were seeded into 6 well plate at a density of 1.5×10^6 per well and incubated at 37 C in 5% CO2 about 24 h. RAW264.7 cells were pretreated with […]
were lysed in 300 μL RIPA cell lysis buffer and the samples were analyzed by WB. […] All antibodies were purchased from ZENBIO. […]

[4] = tested on: LPS-induced inflammation model of mice; test: LPS-induced inflammation model in vivo; design: species or system C57BL/6 mice
Description: All antibodies were purchased from ZENBIO.
4.9 Establishment of LPS-induced inflammation models in vivo
The 30 male C57BL/6 mice weighing 18-22 g were purchased from Animal Department of Anhui Medical University. After adaptive feeding for a week, mice were randomly divided into five groups on average, including the control group, LPS group, compound 51 (5,10,20 mg/kg) +LPS group. Before received 20 mg/kg LPS by intraperitoneal injection, mice were gavaged for three days of compound 51. 6 hours after received LPS, the blood and tissues were taken from mice. The levels of IL-6, TNF-α, SOD and MDA

TNF-α and IL-6 = TNF-α and IL-6 assay (ELISA) in LPS-stimulated RAW264.7 cells; assay type: cell-based; conditions: 1 μg/mL LPS 24 h, supernatant ELISA
Description: 4.6. TNF-α and IL-6 assay
(§2) RAW264.7 cells were seeded into 6 well plate at a density of 1.5×10^6 cells per well. After incubated for 24 hours, cells were treated with different concentrations of compound and stimulated by 1 μg/mL LPS after one hour.24 hours later, the supernatant was collected and measured by ELISA kits(MultiScience). […]

MAPKs (P38, JNK and ERK) = test: Western blot of LPS-regulated MAPK signalling activation in RAW264.7 cells; assay type: cell-based; conditions: LPS stimulated, WB
Description: (§3) RAW264.7 cells were seeded into 6 well plate at a density of 1.5×10^6 per well and incubated at 37 C in 5% CO2 about 24 h. RAW264.7 cells were pretreated with compound (4, 2, 1 μM) for 1 h, then treated with LPS (1 μg/mL) for 30 min. The cells were lysed in 300 μL RIPA cell lysis buffer and the samples were analyzed by WB. […] All antibodies were purchased from ZENBIO. […]

RAW264.7 cells = test: Reactive oxygen species (ROS) assay in LPS-stimulated RAW264.7 cells; assay type: cell-based; conditions: 1 μg/mL LPS 24 h, DCFH-DA
Description: […]
as §1
HEK293T cells were seeded into 96 well plate at a density of 1×10^5 cells per well. After incubated for 24 hours, cells were transfected with NF-κB reporter plasmid at 100 ng/well using lip2000.Six hours later, the medium was replaced by fresh medium containing tested compounds with different concentrations. Then incubated for another hour, TNF-α was added for a final concentration at 10 ng/mL.12 hours later, the cell lysate was collected and the RLU was measured by microplate reader.
4.6. […]
as §2
stimulated by 1 μg/mL LPS after one hour.24 hours later, cells were collected and washed by PBS for three times. […] Cell samples were incubated for 20 min at 37°C,and then the fluorescence intensity measured by microplate reader using Ex λ 488 nm and Em λ 525 […]

NF-κB p65 and IκBα = test: Western blot of LPS-induced phosphorylation of p65 and IκBα in RAW264.7 cells; assay type: cell-based; conditions: compound 4, 2, 1 μM 1 h, then LPS 1 μg/mL 30 min, WB
Description: as §3

[5] = compound 51 5,10,20 mg/kg gavaged, LPS i.p.
[6] = compound 51 5,10,20 mg/kg gavaged, LPS i.p., ELISA

IC50 [2]: 8600 ± 1900 nM | IC50 (NF-κB; Homo sapiens, HEK-293T): 577 ± 21.6 nM
Compound: CC(=O)Nc1ccc(NC(=O)c2cc(-c3ccc(F)c(C)c3)cnc2N)cc1 [Compound 50]
IC50 [1]: > 50000 nM | anti-inflammatory activity (in words) [2]: superior anti-inflammatory activity

IC50 [2]: 3100 ± 1100 nM | IC50 (NF-κB): 172 ± 11.4 nM | IC50 (NF-κB; Homo sapiens, HEK-293T): 173 nM
Compound: CC(=O)Nc1ccc(NC(=O)c2cc(-c3ccc(N)cc3Cl)cnc2N)cc1 [Compound 51]
IC50 [1]: > 50000 nM | cytotoxicity (in words) [1]: did not show obvious cytotoxicity | TNFα-induced nuclear translocation of p50 [3]: inhibited by compound in a dose dependent manner | TNFα-induced nuclear translocation of p65 [3]: inhibited by compound in a dose dependent manner | expression of COX-2 (iNOS and COX-2): decreased significantly | expression of iNOS (iNOS and COX-2): decreased significantly | anti-inflammatory activity (in words) [2]: superior anti-inflammatory activity | activation of NF-κB in splenic organ ([4]; LPS i.p., spleen WB): suppressed the activation of NF-κB in splenic organ | injury of spleen (HE staining) ([4]; compound 51 5,10,20 mg/kg gavaged three days before LPS i.p.): alleviated these injury in a dose-dependent manner | gastric distention and splenomegaly ([4]; compound 51 5,10,20 mg/kg gavaged three days before LPS i.p., 6 hours after LPS): these symptoms were relieved | MDA activity in blood [4, 5]: reversed their activity; also recorded: decreased MDA activity | SOD activity in blood [4, 5]: reversed their activity; also recorded: increased SOD activity | IL-6 level in blood [4, 6]: decreased obviously | TNF-α level in blood [4, 6]: decreased obviously | level of IL-6 (TNF-α and IL-6): decreased the levels of TNF-α and IL-6 significantly in a dose dependent manner | level of TNF-α (TNF-α and IL-6): decreased the levels of TNF-α and IL-6 significantly in a dose dependent manner | phosphorylation of ERK (MAPKs (P38, JNK and ERK)): significantly decreased | phosphorylation of JNK (MAPKs (P38, JNK and ERK)): significantly decreased | phosphorylation of P38 (MAPKs (P38, JNK and ERK)): significantly decreased | level of ROS (RAW264.7 cells): decrease the level of ROS obviously | LPS-induced phosphorylation of IκBα (NF-κB p65 and IκBα): suppressed significantly in a dose dependent manner | LPS-induced phosphorylation of p65 (NF-κB p65 and IκBα): suppressed significantly in a dose dependent manner

IC50 [2]: > 50000 nM | IC50 (NF-κB; Homo sapiens, HEK-293T): 1420 ± 24.7 nM
Compound: COc1ccc(-c2cnc(N)c(C(=O)Nc3ccc(NC(C)=O)cc3)c2)c(F)c1 [Compound 52]
IC50 [1]: > 50000 nM

Reference: publication PMC10281321, “Discovery of an effective anti-inflammatory agent for inhibiting the activation of NF-κB” (Journal of Enzyme Inhibition and Medicinal Chemistry, 2023)
